The compounds below were run on apyrase (assay: Apyrase inhibition assay (Method 1)). Details: inhibitor conc at 1 mM stock, 10 μl per well; 1 hr room temperature; rounded average of at least two assay results.
Type: biochemical
Protocol: Apyrase inhibitors useful as enhancers of pesticidal activity are assessed using an in vitro assay. The method of Windsor, Bio Techniques 33:1024-1030 (November 2002) was used as follows
96 well plates were used for the assay: (Greiner bio-one: REF-655901-96 well, PS, F-bottom, Clear, Non-binding)
• Reaction Buffer: 60 mM Hepes, 3 mM MgCl2, 3 mM CaCl2 and 3 mM ATP (pH 6.5) • Development Buffer A: 2% aqueous ammonium molybdate • Development Buffer B: 11% ascorbic acid in 37.5% TCA in water • Stop buffer C: 2% trisodium citrate in 2% acetic acid solution in water • Add 100 μl of reaction buffer to each well. • Add 10 μl of DMSO (control) or inhibitor/compound or compounds such as N1915 or orthovanadate to each well. (use inhibitor conc at 1 mM; orthovanadate at 2 mM and N1915 at 1 mM) • Add 10 μl of apyrase (concentration based on optimization —Dilute 1 U/μl enzyme to different concentrations such as 0.1U, 0.05U, 0.0025, 0.001U, 0.0005U—to find a good range) • Incubate plate at room temperature for 1 hr • Mix development buffer A and B in the ratio of 1:1.5 (just before use). • Add 50 ul of A:B mix in each well (incubate for 2 mins) • Add 50 ul of C in each well • Measure/Read Absorbance of plate @630 nm
Inhibitory data for the apyrase assay described above are provided for selected compounds in Table 3. In Table 3, D indicates inhibition of <10%.
With reference to Table 3, percent inhibition of apyrase is reported as the rounded average of at least two assay results.

**Q.** `Cc1ccc(NC(=O)c2ccc(C(=O)Nc3ccc(C)cc3)cc2)cc1` [Compound I-1, N^1,N^4-di-p-tolylterephthalamide] was tested. Which “% Inhibition of Apyrase” value did it give?
**A.** A (A indicates inhibition above 30%)

**Q.** For `CSc1cccc(NC(=O)c2ccc(C(=O)Nc3cccc(SC)c3)cc2)c1` [Compound I-2, N^1,N^4-bis(3-(methylthio)phenyl)terephthalamide], which “% Inhibition of Apyrase” value is on record?
**A.** A (A indicates inhibition above 30%)

**Q.** For `O=C(Nc1ccccc1)c1cccc(C(=O)Nc2cc3c(cc2Cl)OCO3)c1` [Compound I-4, N^1-(6-chlorobenzo[d][1,3]dioxol-5-yl)-N3-phenylisophthalamide], which “% Inhibition of Apyrase” value is on record?
**A.** A (A indicates inhibition above 30%)

**Q.** For `O=C(Nc1ccc2c(c1)OCO2)c1ccc(C(=O)Nc2ccc3c(c2)OCO3)cc1` [Compound I-5, N^1,N^4-bis(benzo[d][1,3]dioxol-5-yl)terephthalamide], which “% Inhibition of Apyrase” value is on record?
**A.** A (A indicates inhibition above 30%)

**Q.** With `O=C(Nc1ccc2c(c1)OCCO2)c1ccc(C(=O)Nc2ccc3c(c2)OCCO3)cc1` [Compound I-6, N^1,N^4-bis(2,3-dihydrobenzo[b][1,4]dioxin-6-yl)terephthalamide] as the compound, how does the “% Inhibition of Apyrase” value read?
**A.** A (A indicates inhibition above 30%)

**Q.** For `CCOC(=O)c1ccc(NC(=O)c2cccc(C(=O)Nc3ccc(C(=O)OCC)cc3)c2)cc1` [Compound I-7, diethy 1 4,4′-(isophthaloylbis(azanediyl))dibenzoate], which “% Inhibition of Apyrase” value is on record?
**A.** A (A indicates inhibition above 30%)

**Q.** With `COc1ccc(C)cc1NC(=O)c1ccccc1C(=O)N(C)C1CCCCC1` [Compound I-8, N^1-cyclohexyl-N^2-(2-methoxy-5-methylphenyl)-N^1-methylphthalamide] as the compound, how does the “% Inhibition of Apyrase” value read?
**A.** A (A indicates inhibition above 30%)

**Q.** With `Cc1cccc(CNC(=O)c2ccc(C(=O)Nc3cccc(-n4ccnn4)c3)cc2)c1` [Compound I-9, N^1-(3-(1H-1,2,3-triazol-1-yl)phenyl)-N^4-(3-methylbenzyl)terephthalamide] as the compound, how does the “% Inhibition of Apyrase” value read?
**A.** A (A indicates inhibition above 30%)

**Q.** With `O=C(Nc1cccc(N2CCCC2)c1)c1ccc2c(c1)C(=O)NC2=O` [Compound I-10, 1,3-dioxo-N-(3-(pyrrolidin-1-yl)phenyl)isoindoline-5-carboxamide] as the compound, how does the “% Inhibition of Apyrase” value read?
**A.** B (B indicates inhibition of from 20% to 30%)

**Q.** For `CC1(C)NC(=O)N(c2cccc(NC(=O)c3cccc(C(=O)Nc4ccccc4)c3)c2)C1=O` [Compound I-11, N^1-(3-(4,4-dimethyl-2,5-dioxoimidazolidin-1-yl)phenyl)-N^3-phenylisophthalamide], which “% Inhibition of Apyrase” value is on record?
**A.** B (B indicates inhibition of from 20% to 30%)

**Q.** Which “% Inhibition of Apyrase” value does the source give for `CN(C)C(=O)c1ccccc1C(=O)Nc1ccc2c(c1)OCCCO2` [Compound I-12, N^1-(3,4-dihydro-2H-benzo[b][1,4]dioxepin-7-yl)-N^2,N^2-dimethylphthalamide] here?
**A.** B (B indicates inhibition of from 20% to 30%)

**Q.** Which “% Inhibition of Apyrase” value does the source give for `CCNC(=O)c1cc(NC(=O)c2ccc(C(=O)Nc3ccccc3)cc2)nc2ccccc12` [Compound I-13, N^1-(4-(ethylcarbamoyl)quinolin-2-yl)-N^4-phenylterephthalamide] here?
**A.** B (B indicates inhibition of from 20% to 30%)

**Q.** `CC(C)Cn1c(=O)c2ccccc2c(=O)n1C` [Compound I-15, 2-isobutyl-3-methyl-2,3-dihydrophthalazine-1,4-dione] was tested. Which “% Inhibition of Apyrase” value did it give?
**A.** B (B indicates inhibition of from 20% to 30%)

**Q.** Which “% Inhibition of Apyrase” value does the source give for `O=C(Nc1ccccc1)c1cccc(C(=O)Nc2[nH]ncc2-c2ccc3c(c2)OCO3)c1` [Compound I-16, N1-(4-(benzo[d][1,3]dioxol-5-yl)-1H-pyrazol-5-yl)-N3-phenylisophthalamide] here?
**A.** B (B indicates inhibition of from 20% to 30%)

**Q.** With `O=C(Nc1ccc(-c2c[nH]cn2)cc1)c1cccc(C(=O)Nc2ccc(-c3c[nH]cn3)cc2)c1` [Compound I-17, N^1,N^3-bis(4-(1H-imidazol-4-yl)phenyl)isophthalamide] as the compound, how does the “% Inhibition of Apyrase” value read?
**A.** B (B indicates inhibition of from 20% to 30%)
